Measured values published in patent publication US20240208950A1, “COMPOSITIONS AND METHODS FOR TREATMENT OF CERVICAL AND OVARIAN CANCER” (SOUTH DAKOTA BOARD OF REGENTS, priority 2021, published 2024).

System: CaSki cells
Assay: Cell invasion assay (Matrigel / Boyden chamber), CaSki
Assay type: cell-based, human
Settings: 24 hours
Procedure: FIGS. 8A and 8B show the effect of ORM-Br on invasion of CaSki (FIG. 8A) and SiHa (FIG. 8B) cell lines in Boyden chamber and xCELLigence assay. The images represent the invaded cells of control and ORM-Br-treated CaSki and SiHa cells as determined by Boyden Chamber kit. The magnification was at 20 for the images of FIGS. 8A and 8B.
Cell invasion assay was performed using BD Biocoat Matrigel Invasion Chambers (BD Biosciences, San Jose, CA, USA), as has been described in the art. Cells were treated with Br-ORM followed by incubation for 24 hours. Cells were fixed using methanol and were stained with crystal violet. […]
FIG. 14. […] Effect of Br-ORM on cell migration of cervical cancer cells as determined by agarose bead (FIG. 14A), scratch wound healing (FIG. 14B), and Boyden chamber assay (FIG. 14C). […] Closure of wound was determined and photographed using phase contrast microscopy. […] Bar graph represent the quantification of migrated CaSki cells of control and Br-ORM treated groups (FIG. 14C(ii)). […] Effect of Br-ORM treatment on invasion of CaSki cells as determined by a commercially available kit (BD Biosciences) as described in materials and methods. In brief, 24 hours post-treatment of Br-ORM, invaded cells were fixed, stained and counted. […] Bar graph represent the quantification of invaded CaSki cells of control and Br-ORM treated groups (FIG. 14D(ii)). […]

With `COc1ccc2c(c1)OC(C)(C)C(c1ccc(Br)cc1)C2c1ccc(OCCN2CCCC2)cc1` (centres unmarked) [ORM-Br] the cell invasion was “inhibits the invasion” and the cell invasion (listed as Br-ORM) was “effectively inhibited invasion”.
